According to patent US6365341B1, “Stabilization of highly sensitive nucleic acid stains in aqueous solutions” (priority 2000, dated 2002):
Values belong to the compound of their own block, whether it stands above or below them.

Legend:
[1] = buffer, pH 8.2
[2] = Dye stabilization in solution: t½ of fluorescence intensity with lambda DNA; conditions: Table 3
[3] = Dye stabilization in gels: GelStar-prestained agarose gels with additives, 6 days at 45° C., intensity of a 2.5 ng DNA band; assay type: physicochemical; conditions: GelStar in gel, 6 days in the dark
Protocol: SeaKem LE agarose gels (1% w/v, BMA Inc) were cast in 1×TAPS buffer (3-(N-tris(hydroxymethyl)methylamino)-propanesulfonic acid, 40 mM) in the presence of 1×GelStar nucleic acid stain (BMA Inc) and additives indicated in Table 1. Gels were incubated in the dark for 6 days at 45° C., and tested for the detection of DNA as follows: Gels were submerged in 1×TAPS electrophoresis buffer without dye. Then DNA was electrophoresed through the gel at 20 V/cm for one hour. The intensity of a 2.5 ng DNA band was examined by transillumination at 300 nm. The stain in the gel was considered stabilized if the fluorescence intensity of the DNA was more than 80% compared to when the gel was freshly prepared with stain. […] The quality of DNA resolution in fresh gels were recorded as “Good” when the DNA band was sharp, “Fair” when the DNA band was broad, and “Poor” when the DNA band was fuzzy.

[4] = Dyes that are stabilized by the additive TPABr: t½ in 1xTAPS buffer; conditions: 1xTAPS pH 8.2, with or without 14.6 mM TPABr; transillumination at 300 nm

t½ with TPABr [1]: over 100 days
t½ without TPABr [1]: 120 h
increase of half-life by tetramethylammonium hydroxide alone [2]: 4 fold
Compound: CCCN(CCCN(C)C)c1cc(/C=C2/Sc3ccccc3N2C)c2ccccc2[n+]1-c1ccccc1 [SYBR Green I]

Compound: Tween-20
Dye stabilization at 45° C. ([3]; additive 0.1% (v/v)): No

Compound: CCCCCCCCCCCC[N+](C)(C)C.[Br-] [Dodecyltrimethylammonium bromide]
Dye stabilization at 45° C. ([3]; additive 28 mM): No

Compound: CC[n+]1c(-c2ccccc2)c2cc(N)ccc2c2ccc(N)cc21 [ethidium bromide]
effect of TPABr on the stability [4]: marginal

Compound: CCCC[N+](CCCC)(CCCC)CCCC.[OH-] [Tetrabutylammonium hydroxide (TBAOH), Tetrabutylammonium hydroxide]
Dye stabilization at 45° C. ([3]; additive 14.6 mM): Yes (The stain in the gel was considered stabilized if the fluorescence intensity of the DNA was more than 80% compared to when the gel was freshly prepared with stain)

Compound: CN1CCN(c2ccc3[nH]c(-c4ccc5[nH]c(-c6ccc(O)cc6)nc5c4)nc3c2)CC1 [Hoechst 33258, Hoechst 33258 pentahydrate (bis-benzimide: BisBnz]
effect of TPABr on the stability [4]: marginal

Compound: CCCCC[N+](CCCCC)(CCCCC)CCCCC.[OH-] [TPAOH, Tetrapentylammonium hydroxide]
Dye stabilization at 45° C. ([3]; additive 7.3 mM): Yes (The stain in the gel was considered stabilized if the fluorescence intensity of the DNA was more than 80% compared to when the gel was freshly prepared with stain)
Dye stabilization at 45° C. ([3]; additive 14.6 mM): Yes (The stain in the gel was considered stabilized if the fluorescence intensity of the DNA was more than 80% compared to when the gel was freshly prepared with stain)
